From paper PMC2009665, “The bacterial mutation test. Six tests for carcinogenicity” (British Journal of Cancer, 1978)
Where two headings read alike, the source gives them in different places.

Columns and labels:
[1] = test system: Salmonella typhimurium TA 1538
[2] = test system: Salmonella typhimurium TA 100
[3] = test system: Salmonella typhimurium TA 1538; conditions: cited from earlier work
[4] = test system: Salmonella typhimurium TA 100; conditions: cited from earlier work
[5] = test system: Salmonella typhimurium TA 1535
[6] = test system: Salmonella typhimurium TA 98
[7] = test system: Salmonella typhimurium TA 1535; conditions: cited from earlier work
TA 1537 = conditions: cited from earlier work
[8] = test system: Salmonella typhimurium (TA 1535, TA 1538, TA 98 and TA 100)
S. typhimurium = conditions: cited from earlier work
Strain G46 = conditions: cited from earlier work
Strain C 3076 = conditions: cited from earlier work
Strain TA 1530 = conditions: cited from earlier work
[9] = test system: Salmonella typhimurium TA 98; conditions: cited from earlier work
Strain TA 1532 = conditions: Lab 8; H induction method unknown; ref Green (1974); cited from earlier work
strain TA 1950 = conditions: after induction of enzymes with BHT; ref Green, 1974; cited from earlier work
strain TA 1952 = conditions: after induction of enzymes with BHT; ref Green, 1974; cited from earlier work

Nc1ccc2cc3ccccc3cc2c1 [2-Aminoanthracene]
Result on TA 1538 [1]: + | Result on TA 100 [2]: + | Result on TA 1538 [3]: + | Result on TA 100 [4]: +

Nc1ccc2ccccc2c1 [2-Naphthylamine]
Result on TA 1535 [5]: + | Result on TA 98 [6]: - | Result on TA 1535 [7]: +

Nc1ccc(-c2ccccc2)cc1 [4-Aminobiphenyl]
Result on TA 1535 [5]: - | Result on TA 1538 [1]: + | Result on TA 98 [6]: + | Result on TA 1537 (TA 1537): +

CN(C)c1ccc(N=Nc2ccccc2)cc1 [4-Dimethylaminoazobenzene]
Result on TA 1535 [5]: + | Result on TA 1538 [1]: + | Result on TA 98 [6]: + | Result on TA 100 [2]: + | Result in the present study [8]: positive | Result on TA 1538 [3]: + | Response in the plate incorporation assay (S. typhimurium; plate incorporation assay, ref Commoner et al. (1974)): unable to obtain a positive response

Nc1cc2c3ccccc3ccc2c2ccccc12 [6-Aminochrysene]
Result on TA 1535 [5]: - | Result on TA 98 [6]: + | Result on TA 1537 (TA 1537): +

Cc1c2ccccc2c(C)c2c1ccc1ccccc12 [9,10-Dimethyl-1,2-benzanthracene]
Maximum fold increase in Salmonella revertants above the concurrent negative-control values, TA 1535 [5]: - | Concentration of the compound at which the maximum effect occurred, TA 1538 [1]: 2500 | Maximum fold increase in Salmonella revertants above the concurrent negative-control values, TA 1538 [1]: 4 fold | Maximum fold increase in Salmonella revertants above the concurrent negative-control values, TA 98 [6]: - | Concentration of the compound at which the maximum effect occurred, TA 100 [2]: 2500 | Maximum fold increase in Salmonella revertants above the concurrent negative-control values, TA 100 [2]: 5 fold | Test result (prediction of carcinogenicity from the test) [8]: +

O=C1CCO1 [/3-Propiolactone]
Result on TA 1538 [1]: + | Result on TA 98 [6]: - | Result on TA 100 [2]: + | Result on TA 100 [4]: + | Result on other strains: G46 (Strain G46): 46+ | Result on other strains: C 3076 (Strain C 3076): 76+

CCN(CC)N=O [Diethylnitrosamine]
Result in the present study [8]: positive | Result on subsequent testing [8]: negative

CN(C)N=O [Dimethylnitrosamine]
Result on TA 1535 [5]: - | Result on TA 1538 [1]: - | Result on TA 98 [6]: - | Result in the present study [8]: negative | Result on subsequent testing [8]: positive results have, on occasions | Result on other strains: TA 1530 (Strain TA 1530; Lab 4, P Phenobarbital induction and S9 mix added, L tested in liquid culture, ref Bartsch et al. (1976)): 3+

CCOS(C)(=O)=O [Ethyl methanesulphonate]
Result on TA 1535 [5]: + | Result on TA 1538 [1]: + | Result on TA 98 [6]: + | Result on TA 100 [2]: + | Result in the present study [8]: detected in all 4 strains | Result on TA 1535 [7]: + | Result on TA 100 [4]: + | Result on other strains: G46 (Strain G46): 46+ | Result on other strains: C 3076 (Strain C 3076): 76+

CN(C)P(=O)(N(C)C)N(C)C [Hexamethylphosphoramide]
Result on TA 1538 [1]: - | Result on TA 98 [6]: - | Result on TA 1538 [3]: - | Result on TA 98 [9]: -

NN [Hydrazine]
Result on TA 1535 [5]: + | Result on TA 1538 [1]: - | Result on TA 98 [6]: + | Result on TA 100 [2]: + | Result on TA 1535 [7]: + | Result on TA 1538 [3]: - | Result on TA 1537 (TA 1537): - | Result on other strains: TA 1530 (Strain TA 1530; Lab 2, W no S9 mix, ref McCann et al. (1975) and references quoted therein): 3+ | Result on other strains: G46 (Strain G46): 46+

C=CCc1ccc2c(c1)OCO2 [Safrole]
Result on TA 1538 [1]: - | Result in the present study [8]: positive | Result on TA 1537 (TA 1537): - | Result on other strains: TA 1530 (Strain TA 1530; Lab 8, H induction method unknown, ref Green (1974)): 3+ | Result on other strains: TA 1532 (Strain TA 1532): 2+ | Result in host-mediated assay, strain TA 1950 (strain TA 1950): positive | Result in host-mediated assay, strain TA 1952 (strain TA 1952): positive

CCOC(N)=O [Urethane]
Result on TA 1535 [5]: - | Result on TA 1538 [1]: - | Result on TA 98 [6]: - | Result on TA 1535 [7]: - | Result on TA 98 [9]: - | Result on TA 1537 (TA 1537): -

C=CCl [Vinyl chloride]
Result dissolved in DMSO (S. typhimurium): negative | Result when tested as a gas (S. typhimurium): positive
